US20260062422A1 (Halda Therapeutics OpCo, Inc., priority 2022, published 2026)

Assays:
VCaP cells = experiment: Cellular growth inhibition assay for VCaP cells, CellTiter-Glo; type: cell-based, human; conditions: Homo sapiens, VCaP, 72 h, 72 hours treatment, CellTiter-Glo 2.0
How it was run: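 GI50 values come from four-parameter curve fits of luminescence data normalized to a zero baseline. Compound, in medium with 0.5% DMSO, was added one day after plating and left for 72 h before CellTiter-Glo 2.0 addition.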

[1] = test system: T-Rex 293 cell line SC3 cells having increased expression of androgen receptor protein due to exposure to doxycycline; experiment: Cellular growth inhibition, T-Rex 293 SC3 cells with doxycycline (androgen receptor induced), CellTiter-Glo; type: cell-based; conditions: 72 h, T-Rex 293 SC3 cells with 10 ng/mL doxycycline (increased androgen receptor expression)
How it was run: (§1)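 SC3 is a T-Rex 293 clone stably transfected with wild-type androgen receptor in pcDNA4/TO, inducible by 10 ng/mL doxycycline. Cells were grown in phenol red-free DMEM with 10% charcoal-dextran FBS, with or without doxycycline, dosed 24 h after seeding (0.5% DMSO) for 72 h. Viability was read by CellTiter-Glo 2.0 luminescence and GI50 obtained from four-parameter fits.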

[2] = test system: T-Rex 293 cell line SC3 cells lacking increased expression of androgen receptor protein; experiment: Cellular growth inhibition, T-Rex 293 SC3 cells without doxycycline, CellTiter-Glo; type: cell-based; conditions: 72 h, T-Rex 293 SC3 cells not exposed to doxycycline, CellTiter-Glo 2.0
How it was run: as §1

GI50 (VCaP cells) | Compound | GI50 [1] | GI50 [2]
< 500 nM | CCNC(=O)C[C@@H]1N=C(c2ccc(OCCOCCOCCOC3CCN(c4ncc(C(=O)N[C@H]5C(C)(C)[C@H](Oc6ccc(C#N)c(Cl)c6)C5(C)C)cn4)CC3)cc2)c2c(sc(C)c2C)-n2c(C)nnc21 [Compound I-45, N-((1r,3r)-3-(3-chloro-4-cyanophenoxy)-2,2,4,4-tetramethylcyclobutyl)-2-(4-(2-(2-(2-(4-((S)-6-(2-(ethylamino)-2-oxoethyl)-2,3,9-trimethyl-6H-thieno[3,2-f][1,2,4]triazolo[4,3-a][1,4]diazepin-4-yl)phenoxy)ethoxy)ethoxy)ethoxy)piperidin-1-yl)pyrimidine-5-carboxamide] | < 500 nM | 500 to 1500 nM
< 500 nM | Cc1sc2c(c1C)C(c1ccc(Cl)cc1)=N[C@@H](CC(=O)NCCOC1CCN(c3ncc(C(=O)N[C@H]4C(C)(C)[C@H](Oc5ccc(C#N)c(Cl)c5)C4(C)C)cn3)CC1)c1nnc(C)n1-2 [Compound I-6] | < 500 nM | 500 to 1500 nM
500 to 1500 nM | CCNC(=O)C[C@@H]1N=C(c2ccc(OCCCCc3ncc(C(=O)N[C@H]4C(C)(C)[C@H](Oc5ccc(C#N)c(Cl)c5)C4(C)C)cn3)cc2)c2c(sc(C)c2C)-n2c(C)nnc21 [Compound I-86] | < 500 nM | 1500 to 3000 nM
< 500 nM | Cc1sc2c(c1C)C(c1ccc(CC3CN(CC4CCN(c5ncc(C(=O)N[C@H]6C(C)(C)[C@H](Oc7ccc(C#N)c(Cl)c7)C6(C)C)cn5)CC4)C3)cc1)=N[C@@H](Cc1ncco1)c1nnc(C)n1-2 [Compound I-153] | < 500 nM | 500 to 1500 nM
< 500 nM | Cc1sc2c(c1C)C(c1ccc(Cl)cc1)=N[C@@H](CC(=O)NCCOCCOCCOCC1CN(c3ncc(C(=O)N[C@H]4C(C)(C)[C@H](Oc5ccc(C#N)c(Cl)c5)C4(C)C)cn3)C1)c1nnc(C)n1-2 [Compound I-18] | 500 to 1500 nM | 1500 to 3000 nM
> 3000 nM | COCC[C@@H]1N=C(c2ccc(CCCOC3CCN(c4ncc(C(=O)N[C@H]5C(C)(C)[C@H](Oc6ccc(C#N)c(Cl)c6)C5(C)C)cn4)CC3)cc2)c2c(sc(C)c2C)-n2c(C)nnc21 [Compound I-227, N-[3-(3-chloro-4-cyano-phenoxy)-2,2,4,4-tetramethyl-cyclobutyl]-2-[4-[3-[4-[(9S)-9-(2-methoxyethyl)-4,5,13-trimethyl-3-thia-1,8,11,12-tetrazatricyclo[8.3.0.02,6]trideca-2(6),4,7,10,12-pentaen-7-yl]phenyl]propoxy]-1-piperidyl]pyrimidine-5-carboxamide] | < 500 nM | 500 to 1500 nM
< 500 nM | CCNC(=O)C[C@@H]1N=C(c2ccc(N(C3CC3)C3CN(CC4CCN(c5ncc(C(=O)N[C@H]6C(C)(C)[C@H](Oc7ccc(C#N)c(Cl)c7)C6(C)C)cn5)CC4)C3)cc2)c2c(sc(C)c2C)-n2c(C)nnc21 [Compound I-129] | < 500 nM | 1500 to 3000 nM
1500 to 3000 nM | CCNC(=O)C[C@@H]1N=C(c2ccc(CCCC3CCN(c4ncc(C(=O)N[C@H]5C(C)(C)[C@H](Oc6ccc(C#N)c(Cl)c6)C5(C)C)cn4)CC3)cc2)c2c(sc(C)c2C)-n2c(C)nnc21 [Compound I-95] | < 500 nM | < 500 nM

Second part, the compound before the results:

Compound | GI50 (VCaP cells) | GI50 [1] | GI50 [2]
CCNC(=O)C[C@@H]1N=C(c2ccc(Oc3ncc(C(=O)N[C@H]4C(C)(C)[C@H](Oc5ccc(C#N)c(Cl)c5)C4(C)C)cn3)cc2)c2c(sc(C)c2C)-n2c(C)nnc21 [Compound I-84] | 500 to 1500 nM | 500 to 1500 nM | 1500 to 3000 nM
Cc1sc2c(c1C)C(c1ccc(Cl)cc1)=N[C@H](CC(=O)NCCOCCOCCOCCOC1CCN(c3ncc(C(=O)N[C@H]4C(C)(C)[C@H](Oc5ccc(C#N)c(Cl)c5)C4(C)C)cn3)CC1)c1nnc(C)n1-2 [Compound I-13] | > 3000 nM | > 3000 nM | > 3000 nM
CCNC(=O)C[C@@H]1N=C(c2ccc(N(C)C3CC(OC4CCN(c5ncc(C(=O)N[C@H]6C(C)(C)[C@H](Oc7ccc(C#N)c(Cl)c7)C6(C)C)cn5)CC4)C3)cc2)c2c(sc(C)c2C)-n2c(C)nnc21 (stereo partly drawn) [Compound I-130] | 500 to 1500 nM | < 500 nM | 500 to 1500 nM
Cc1sc2c(c1C)C(c1ccc(OC3CC4(C3)CC3(CCN(c5ncc(C(=O)N[C@H]6C(C)(C)[C@H](Oc7ccc(C#N)c(Cl)c7)C6(C)C)cn5)CC3)C4)cc1)=N[C@@H](Cc1ncco1)c1nnc(C)n1-2 [Compound I-283] | < 500 nM | < 500 nM | > 3000 nM
Cc1sc2c(c1C)C(c1ccc(Cl)cc1)=N[C@@H](CC(=O)NCCOCCOCCOCCOCCOC1CCN(c3ncc(C(=O)N[C@H]4C(C)(C)[C@H](Oc5ccc(C#N)c(Cl)c5)C4(C)C)cn3)CC1)c1nnc(C)n1-2 [Compound I-8] | < 500 nM | < 500 nM | 1500 to 3000 nM
Cc1sc2c(c1C)C(c1ccc(OC3CC4(CCN(c5ncc(C(=O)N[C@H]6C(C)(C)[C@H](Oc7ccc(C#N)c(Cl)c7)C6(C)C)cn5)CC4)C3)cc1)=N[C@@H](Cc1ncco1)c1nnc(C)n1-2 [Compound I-49, N-[3-(3-chloro-4-cyano-phenoxy)-2,2,4,4-tetramethyl-cyclobutyl]-2-[2-[4-[(9S)-4,5,13-trimethyl-9-(oxazol-2-ylmethyl)-3-thia-1,8,11,12-tetrazatricyclo[8.3.0.02,6]trideca-2(6),4,7,10,12-pentaen-7-yl]phenoxy]-7-azaspiro[3.5]nonan-7-yl]pyrimidine-5-carboxamide] | < 500 nM | < 500 nM | < 500 nM
CCNC(=O)C[C@@H]1N=C(c2ccc(OCCOC3CCN(c4ncc(C(=O)N[C@H]5C(C)(C)[C@H](Oc6ccc(C#N)c(Cl)c6)C5(C)C)cn4)CC3)c(F)c2)c2c(sc(C)c2C)-n2c(C)nnc21 [Compound I-76] | 500 to 1500 nM | < 500 nM | 500 to 1500 nM
CCNC(=O)C[C@@H]1N=C(c2ccc(N3CCC(N(C)C4CCN(c5ncc(C(=O)N[C@H]6C(C)(C)[C@H](Oc7ccc(C#N)c(Cl)c7)C6(C)C)cn5)CC4)CC3)cc2)c2c(sc(C)c2C)-n2c(C)nnc21 [Compound I-113] | < 500 nM | < 500 nM | 1500 to 3000 nM
Cc1sc2c(c1C)C(c1ccc(CCCOC3CCN(c4ncc(C(=O)N[C@H]5C(C)(C)[C@H](Oc6ccc(C#N)c(Cl)c6)C5(C)C)cn4)CC3)cc1)=N[C@@H](C)c1nnc(C)n1-2 [Compound I-228, N-[3-(3-chloro-4-cyano-phenoxy)-2,2,4,4-tetramethyl-cyclobutyl]-2-[4-[3-[4-[(9S)-4,5,9,13-tetramethyl-3-thia-1,8,11,12-tetrazatricyclo [8.3.0.02,6]trideca-2(6),4,7,10,12-pentaen-7-yl]phenyl]propoxy]-1-piperidyl]pyrimidine-5-carboxamide] | < 500 nM | < 500 nM | 500 to 1500 nM
Cc1sc2c(c1C)C(c1ccc(Cl)cc1)=N[C@@H](CC(=O)NCCCCOCCOC1CCN(c3ncc(C(=O)N[C@H]4C(C)(C)[C@H](Oc5ccc(C#N)c(Cl)c5)C4(C)C)cn3)CC1)c1nnc(C)n1-2 [Compound I-28] | < 500 nM | < 500 nM | 500 to 1500 nM
Cc1sc2c(c1C)C(c1ccc(OCCOCCOC3CCN(c4ncc(C(=O)N[C@H]5C(C)(C)[C@H](Oc6ccc(C#N)c(Cl)c6)C5(C)C)cn4)CC3)cc1)=N[C@@H](CC(=O)O)c1nnc(C)n1-2 [Compound I-39] | > 3000 nM | 500 to 1500 nM | > 3000 nM
CCNC(=O)C[C@@H]1N=C(c2ccc(OC3CCN(c4ncc(C(=O)N[C@H]5C(C)(C)[C@H](Oc6ccc(C#N)c(Cl)c6)C5(C)C)cn4)CC3)cc2)c2c(sc(C)c2C)-n2c(C)nnc21 [Compound I-61] | 500 to 1500 nM | < 500 nM | 1500 to 3000 nM
Cc1sc2c(c1C)C(c1ccc(Cl)cc1)=N[C@@H](CC(=O)NCCCN1CCN(CC3CCN(c4ncc(C(=O)N[C@H]5C(C)(C)[C@H](Oc6ccc(C#N)c(Cl)c6)C5(C)C)cn4)CC3)CC1)c1nnc(C)n1-2 [Compound I-36, N-((1r,3r)-3-(3-chloro-4-cyanophenoxy)-2,2,4,4-tetramethylcyclobutyl)-2-(4-((4-(3-(2-((S)-4-(4-chlorophenyl)-2,3,9-trimethyl-6H-thieno[3,2-f][1,2,4]triazolo[4,3-a][1,4]diazepin-6-yl)acetamido)propyl)piperazin-1-yl)methyl)piperidin-1-yl)pyrimidine-5-carboxamide] | 500 to 1500 nM | 500 to 1500 nM | 500 to 1500 nM
CCNC(=O)C[C@@H]1N=C(c2ccc(N3CCN(CC4CCN(c5ncc(C(=O)N[C@H]6C(C)(C)[C@H](Oc7ccc(C#N)c(Cl)c7)C6(C)C)cn5)CC4)CC3)cc2)c2c(sc(C)c2C)-n2c(C)nnc21 [Compound I-105, N-[3-(3-chloro-4-cyano-phenoxy)-2,2,4,4-tetramethyl-cyclobutyl]-2-[4-[[4-[4-[(9S)-9-[2-(ethylamino)-2-oxo-ethyl]-4,5,13-trimethyl-3-thia-1,8,11,12-tetrazatricyclo[8.3.0.02,6]trideca-2(6),4,7,10,12-pentaen-7-yl]phenyl]piperazin-1-yl]methyl]-1-piperidyl]pyrimidine-5-carboxamide] | < 500 nM | < 500 nM | < 500 nM
Cc1sc2c(c1C)C(c1ccc(OC3CN(CC4CCN(c5ncc(C(=O)N[C@H]6C(C)(C)[C@H](Oc7ccc(C#N)c(Cl)c7)C6(C)C)cn5)CC4)C3)cc1)=N[C@H](Cc1ncco1)c1nnc(C)n1-2 [Compound I-169] | < 500 nM | < 500 nM | > 3000 nM
Cc1sc2c(c1C)C(c1ccc(Cl)cc1)=N[C@@H](CC(=O)NCCOCCOCCOC1CCN(c3ncc(C(=O)N[C@H]4C(C)(C)[C@H](Oc5ccc(C#N)c(Cl)c5)C4(C)C)cn3)CC1)c1nnc(C)n1-2 [Compound I-7] | < 500 nM | < 500 nM | 500 to 1500 nM
